Results: patent US20150307530A1, “NOVEL MUCOLYTIC AGENTS” (PARION SCIENCES, INC., priority 2012, published 2015)

Assays:
[1] = Elimination of inhaled 14C-labeled NAC from the lungs in animal studies; format: in vivo; details: inhaled or intranasal, 14C-labeled NAC administered by inhalation, animal studies (unpublished observation)
Description: NAC, as a topical pulmonary therapeutic agent, is not optimal for the reduction of mucin disulfide bonds. […] For example, in the pH environment of the airway surface (measured in the range of pH 6.0 to 7.2 in CF and COPD airways), NAC exists only partially in its reactive state as a negatively charge thiolate (Jayaraman S, Song Y, Vetrivel L, Shankar L, Verkman A S. Noninvasive in vivo fluorescence measurement of airway-surface liquid depth, salt concentration, and pH. J Clin Invest. 2001; 107(3):317-24) (FIG. 3). […] The relatively low reducing activity at of NAC physiologic airway pH and a the short half-life of NAC on the lung surface provide an explanation for the lack of strong clinical evidence for effective mucus reduction in mucus obstructive diseases.

[2] = DTNB assay: rate of disulfide bond reduction; format: biochemical; details: for DTNB reducing kinetics as a function of pH: pH range relevant for mucosal surfaces (pH 6.0-7.5); for DTNB reducing kinetics as a function of pH / reducing kinetic for DTNB reduction compared with NAC and DTT: FIG. 3; for reducing kinetic for DTNB reduction compared with NAC and DTT: comparison with thiol reducing agents
Description: FIG. 2. Spectrophotometric studies monitored formation of reduced DTNB over time. Reaction rates, generated using second order kinetics, for each compound were compared as a function of reducing agent to substrate (DTNB) concentration at pH 6.5.
FIG. 3. Spectrophotometric studies monitored formation of reduced DTNB over time. Reaction rates, generated using second order kinetics, for each compound were over a pH range relevant for mucosal surfaces.
Mucin Agarose Gel Western Blots: Reducing agent stock solutions are made up in 100 mM Potassium Phosphate and are buffered to pH 6.5. The reducing agent stocks are diluted into saliva samples (pH 6.5) to achieve the final desired reducing agent concentration. […] The reactions are quenched using at least a 2-fold excess of N-ethylmaleimide and/or hydrogen peroxide. A 5× concentrated sample loading buffer is diluted into the samples to achieve a 1× concentration (1×TAE, 5% glycerol, 0.1% SDS, Bromophenol Blue). Samples (50 ug) are analyzed by electrophoresis on 0.9% agarose gels using a buffer system consisting of 1×TAE/0.1% SDS. […] Unreduced and reduced Muc5B are visualized using a polyclonal antibody directed towards Muc5B and a Protoblot II AP System with stabilized substrate. […] Each compound solution (10 uL) is added apically to primary hBEs for 6 hrs. The hBEs are lysed in RIPA buffer supplemented with protease inhibitor cocktail (Roche) and 1 mM PMSF. The samples are normalized to contain the same total amount of protein followed by addition of 2×SDS sample buffer (100 mM Tris-HCl (pH6.8)/4% SDS/0.05% Bromophenol Blue/20% glycerol). Samples (20 […]g) are analyzed by electrophoresis on a 10% SDS-PAGE gel and transferred to a nitrocellulose membrane. BiP levels are visualized using a polyclonal antibody directed towards BiP and the LiCor Odyssey imaging detection system. Thapsigargin (TG, 2.5 µM) served as a positive control for BiP induction. DTNB ASSAY: This assay determines the rate which a mucolytic agent can reduce a disulfide bond using 5,5-Dithiobis(2-nitrobenzoic acid). DTNB in various pH buffers and allows comparison of the kinetic rates of reducing agents. […] Max Abs412 was measured and then utilized to calculate the activity concentration.
The kinetics of disulfide bond reduction can be quantitative measured using 5,5′-dithiobis-(2-nitrobenzoic acid) (DTNB or Ellman's Reagent). DTNB contains an internal disulfide bond, which when reduced, gives rise to two molecules of TNB that can be monitored by […] at 412 nm.

Muc5B = Muc5B (Homo sapiens, UniProt Q9HC84); experiment: Mucin agarose gel western blot: Muc5B reduction in saliva; details: 30 minute incubation, FIG. 4; for concentration producing Muc5B (mucin) reduction by downward gel shift: pH 6.5, agarose gel/western blot
Procedure: Analysis of Muc5B reduction by western blot. Saliva was incubated with reducing agents at indicated concentrations for 30 min prior to agarose gel electrophoresis/western blot visualization of unreduced and reduced Muc5B. Both saliva and compounds were buffered to pH 6.5.
Quantitation of Muc5B reduction by western blot.
Saliva samples were aliquoted and incubated with the indicated concentrations of reducing agents (FIG. 4). After a 30 minute incubation, the reducing agents were quenched by the addition of a 10-fold molar excess of N-ethylmaliamide (NEM). The mucus samples were separated by agarose gel electrophoresis and analyzed by western blot.

[3] = Hydrogen peroxide incubation (oxygen free radical scavenging), read out by DTNB reduction; format: biochemical; details: excess hydrogen peroxide, 60 second incubation; FIG. 10
Procedure: FIG. 10. Compound Ib was incubated with excess hydrogen peroxide to assess the ability of Compound Ib to scavenge oxygen free radicals. Following a 60 second incubation with hydrogen peroxide, the activity of Compound Ib was determined by its ability to reduce DTNB (Ellman's Reagent).

Balb-C mice = experiment: BALF cellularity after pulmonary aspiration in Balb-C mice; format: in vivo; details: pulmonary aspiration (40 ul deposited dose), BALF at 4 and 24 hours post administration, all concentrations tested, FIG. 9
Procedure: FIG. 9. Balb-C mice were administered Compound Ib at the indicated concentrations via pulmonary aspiration (40 ul deposited dose). Bronchoalveolar lavage fluid (BALF) was collected at 4 and 24 hours post administration and the total cellularity of the BALF was determined.

| SMILES | half-life [1] | DTNB reducing kinetics as a function of pH [2] | concentration producing Muc5B (mucin) reduction by downward gel shift (Muc5B) | reducing kinetic for DTNB reduction compared with NAC and DTT [2] | activity (ability to reduce DTNB) after incubation with hydrogen peroxide [3] | DTNB reduction kinetics as a function of reducing agent to DTNB ratio ([2]; increasing concentrations of reducing agent, fixed concentration of DTNB and pH (7.0), FIG. 2) | potency of mucus (Muc5B) reduction relative to NAC and DTT (Muc5B) | total cellularity of the BALF compared to vehicle (Balb-C mice) |
| --- | --- | --- | --- | --- | --- | --- | --- | --- |
| CC(=O)N[C@@H](CS)C(=O)O [NAC, N-acetyl cysteine, reference compound] | ~20 min | pH-dependent increase in DTNB reduction | > 100 mM |  |  |  |  |  |
| O[C@H](CS)[C@H](O)CS (racemic) [DTT, dithiothreitol, reference compound] |  | pH-dependent increase in DTNB reduction | ≥ 3 mM |  |  |  |  |  |
| NCCP(c1ccccc1)c1ccccc1 [If, 2-(diphenylphosphino)ethanamine] |  | fastest reducing kinetic tested |  | faster reducing kinetic |  |  |  |  |
| O=C(O)CCP(CCC(=O)O)CCC(=O)O [Compound Ib, 3,3′,3″-phosphinetriyltripropanoic acid] |  | pH-dependent increase in reducing activity | ≥ 1 mM | faster reducing kinetic | decreased the activity | fastest reduction kinetics at all ratios of reducing agent to DTNB substrate | more potent | did not increase BALF cellularity compared to the vehicle |
